pEC50: −log10 of the molar value.
The molecules below were run on mesenteric artery (assay: Relaxation of mesenteric artery (KCl-contracted)). Conditions: Oryctolagus cuniculus; rabbit mesenteric artery contracted with 15 to 20 mM KCl; read-out: ED50 (concentration attaining 50% of complete relaxation).
Method: 1. Relaxation of Mesenteric Artery
A rabbit of Japanese local variety weighing about 3 kg was bled to death. Then, the abdomen of the rabbit was dissected to locate a mesenteric artery. […] Thus, shrinking and relaxation of the artery could be measured as a load on the transducer. To the organ bath, KCl was added so that the KCl concentration became 15 to 20 mM, causing the artery to shrink. Then, the compounds of the present invention were added to the organ bath to observe relaxation of the artery.
The effect of the compounds of the present invention on relaxation of mesenteric artery was examined according to the method as mentioned hereinbefore.

Structure (SMILES) | pEC50
CCCCCCN(CC(N)CC)S(=O)(=O)c1cccc2cnccc12 (stereo not drawn) [Compound (12), N-(2-aminobutyl)-N-hexyl-5-isoquinolinesulfonamide] | 5.40
O=S(=O)(c1cccc2c(O)nccc12)N1CCC(Nc2ccccc2)CC1 [Compound (82), 1-(1-hydroxy-5-isoquinolinesulfonyl)-4-phenylaminopiperidine] | 4.68
CCCCCCN(C(CCC)CCCN)S(=O)(=O)c1cccc2cnccc12 (stereo not drawn) [Compound (24), N-(4-amino-1-propylbutyl)-N-hexyl-5-isoquinolinesulfonamide] | 4.64
CCCCCCN(CCN1CCOCC1)S(=O)(=O)c1cccc2cnccc12 [Compound (46), N-hexyl-N-(2-morpholinoethyl)-5-isoquinolinesulfonamide] | 4.64
CCCCCN(CCCCCCNCc1ccccc1)S(=O)(=O)c1cccc2cnccc12 [Compound (34), N-(6-benzylaminohexyl)-N-pentyl-5-isoquinolinesulfonamide] | 4.70
NC1CCCN(S(=O)(=O)c2cccc3c(Cl)nccc23)C1 (stereo not drawn) [Compound (96), 1-(1-chloro-5-isoquinolinesulfonyl)-3-aminopiperidine] | 4.82
NC1CCN(S(=O)(=O)c2cccc3cnccc23)CC1 [Compound (51), 1-(5-isoquinolinesulfonyl)-4-aminopiperidine] | 4.82
CCNC1CCCN(S(=O)(=O)c2cccc3cnccc23)C1 (stereo not drawn) [Compound (65), 1-(5-isoquinolinesulfonyl)-3-ethylaminopiperidine] | 5.22
CCNC1CCN(S(=O)(=O)c2cccc3cnccc23)CC1 [Compound (53), 1-(5-isoquinolinesulfonyl)-4-ethylaminopiperidine] | 4.85
CCCN(CC(C)CN)S(=O)(=O)c1cccc2cnccc12 (stereo not drawn) [Compound (20), N-(3-amino-2-methylpropyl)-N-propyl-5-isoquinolinesulfonamide] | 4.77
CNC1CCN(S(=O)(=O)c2cccc3c(O)nccc23)CC1 [Compound (80), 1-(1-hydroxy-5-isoquinolinesulfonyl)-4-methylaminopiperidine] | 4.85
CNC1CCN(S(=O)(=O)c2cccc3cnccc23)CC1 [Compound (52), 1-(5-isoquinolinesulfonyl)-4-methylaminopiperidine] | 4.85

More lines, now with the values ahead:

pEC50 | Structure (SMILES)
4.85 | CC(C)NC1CCCN(S(=O)(=O)c2cccc3cnccc23)C1 (stereo not drawn) [Compound (67), 1-(5-isoquinolinesulfonyl)-3-isopropylaminopiperidine]
4.66 | CCN(CCN(C)C1CCCCC1)S(=O)(=O)c1cccc2cnccc12 [Compound (47), N-[2-(N-cyclohexyl-N-methylamino)ethyl]-N-ethyl-5-isoquinolinesulfonamide]
5.15 | CCCCCCN(CC(C)NCC)S(=O)(=O)c1cccc2cnccc12 (stereo not drawn) [Compound (36), N-(2-ethylaminopropyl)-N-hexyl-5-isoquinolinesulfonamide]
4.72 | CCCCCCN(C(C)CCCN)S(=O)(=O)c1cccc2cnccc12 (stereo not drawn) [Compound (21), N-(4-amino-1-methylbutyl)-N-hexyl-5-isoquinolinesulfonamide]
4.89 | CCCCN(C(C)C(C)N)S(=O)(=O)c1cccc2cnccc12 (stereo not drawn) [Compound (16), N-(2-amino-1-methylpropyl)-N-butyl-5-isoquinolinesulfonamide]
4.82 | CCCCCCNC1CCN(S(=O)(=O)c2cccc3cnccc23)CC1 [Compound (57), 1-(5-isoquinolinesulfonyl)-4-hexylaminopiperidine]
5.00 | CCCCCCCCC(N)CN(CCC)S(=O)(=O)c1cccc2cnccc12 (stereo not drawn) [Compound (14), N-(2-aminodecyl)-N-propyl-5-isoquinolinesulfonamide]
4.72 | O=S(=O)(c1cccc2cnccc12)N1CCC(NCc2ccccc2)CC1 [Compound (60), 1-(5-isoquinolinesulfonyl)-4-benzylaminopiperidine]
4.82 | CCN(CC)CCN(C)S(=O)(=O)c1cccc2cnccc12 [Compound (42), N-(2-diethylaminoethyl)-N-methyl-5-isoquinolinesulfonamide]

These molecules were tested on bronchial tubes (assay: Inhibition of histamine contraction of bronchial tubes (relaxation of bronchial tubes)). Conditions: Cavia porcellus; guinea pig bronchial tube, 10 μM histamine; Table 16; read-out: ED50 (50% decrease of histamine contraction of bronchial tubes).
Method: 3. Inhibition of Histamine Contraction of Bronchial Tubes (Relaxation of Bronchial Tubes)
That is, a bronchial tube sample taken from a guinea pig was suspended in the 20-ml bath filled with Krebs-Henseleit nutrient solution and maintained at a temperature of 37° C. To the bath was added histamine so that the histamine concentration became 10 μM, causing the bronchial tube sample to contract. After the contraction became stable, the compounds of the present invention were added cumulatively to the bath to observe relaxation of the bronchial tube sample.
The effect of the compounds of the present invention on relaxation of bronchial tubes was examined according to the method as mentioned hereinbefore.

Structure (SMILES) | pEC50
CCCCCCN(CC(N)CC)S(=O)(=O)c1cccc2cnccc12 (stereo not drawn) [Compound (12), N-(2-aminobutyl)-N-hexyl-5-isoquinolinesulfonamide] | 4.92
O=S(=O)(c1cccc2c(O)nccc12)N1CCC(Nc2ccccc2)CC1 [Compound (82), 1-(1-hydroxy-5-isoquinolinesulfonyl)-4-phenylaminopiperidine] | 4.68
CCCCCCN(C(CCC)CCCN)S(=O)(=O)c1cccc2cnccc12 (stereo not drawn) [Compound (24), N-(4-amino-1-propylbutyl)-N-hexyl-5-isoquinolinesulfonamide] | 4.77
CCCCCCN(CCN1CCOCC1)S(=O)(=O)c1cccc2cnccc12 [Compound (46), N-hexyl-N-(2-morpholinoethyl)-5-isoquinolinesulfonamide] | 4.60
CCCCCN(CCCCCCNCc1ccccc1)S(=O)(=O)c1cccc2cnccc12 [Compound (34), N-(6-benzylaminohexyl)-N-pentyl-5-isoquinolinesulfonamide] | 4.68
NC1CCCN(S(=O)(=O)c2cccc3c(Cl)nccc23)C1 (stereo not drawn) [Compound (96), 1-(1-chloro-5-isoquinolinesulfonyl)-3-aminopiperidine] | 4.92
NC1CCN(S(=O)(=O)c2cccc3cnccc23)CC1 [Compound (51), 1-(5-isoquinolinesulfonyl)-4-aminopiperidine] | 5.10
CCNC1CCCN(S(=O)(=O)c2cccc3cnccc23)C1 (stereo not drawn) [Compound (65), 1-(5-isoquinolinesulfonyl)-3-ethylaminopiperidine] | 5.30
CCNC1CCN(S(=O)(=O)c2cccc3cnccc23)CC1 [Compound (53), 1-(5-isoquinolinesulfonyl)-4-ethylaminopiperidine] | 4.96
CCCN(CC(C)CN)S(=O)(=O)c1cccc2cnccc12 (stereo not drawn) [Compound (20), N-(3-amino-2-methylpropyl)-N-propyl-5-isoquinolinesulfonamide] | 4.82
CNC1CCN(S(=O)(=O)c2cccc3c(O)nccc23)CC1 [Compound (80), 1-(1-hydroxy-5-isoquinolinesulfonyl)-4-methylaminopiperidine] | 4.80
CNC1CCN(S(=O)(=O)c2cccc3cnccc23)CC1 [Compound (52), 1-(5-isoquinolinesulfonyl)-4-methylaminopiperidine] | 4.92

Results, then the molecule that gave them:

pEC50 | Structure (SMILES)
5.00 | CC(C)NC1CCCN(S(=O)(=O)c2cccc3cnccc23)C1 (stereo not drawn) [Compound (67), 1-(5-isoquinolinesulfonyl)-3-isopropylaminopiperidine]
4.72 | CCN(CCN(C)C1CCCCC1)S(=O)(=O)c1cccc2cnccc12 [Compound (47), N-[2-(N-cyclohexyl-N-methylamino)ethyl]-N-ethyl-5-isoquinolinesulfonamide]
4.52 | CCCCCCN(CC(C)NCC)S(=O)(=O)c1cccc2cnccc12 (stereo not drawn) [Compound (36), N-(2-ethylaminopropyl)-N-hexyl-5-isoquinolinesulfonamide]
4.77 | CCCCCCN(C(C)CCCN)S(=O)(=O)c1cccc2cnccc12 (stereo not drawn) [Compound (21), N-(4-amino-1-methylbutyl)-N-hexyl-5-isoquinolinesulfonamide]
4.89 | CCCCN(C(C)C(C)N)S(=O)(=O)c1cccc2cnccc12 (stereo not drawn) [Compound (16), N-(2-amino-1-methylpropyl)-N-butyl-5-isoquinolinesulfonamide]
4.70 | CCCCCCNC1CCN(S(=O)(=O)c2cccc3cnccc23)CC1 [Compound (57), 1-(5-isoquinolinesulfonyl)-4-hexylaminopiperidine]
4.66 | CCCCCCCCC(N)CN(CCC)S(=O)(=O)c1cccc2cnccc12 (stereo not drawn) [Compound (14), N-(2-aminodecyl)-N-propyl-5-isoquinolinesulfonamide]
4.89 | O=S(=O)(c1cccc2cnccc12)N1CCC(NCc2ccccc2)CC1 [Compound (60), 1-(5-isoquinolinesulfonyl)-4-benzylaminopiperidine]
4.60 | CCN(CC)CCN(C)S(=O)(=O)c1cccc2cnccc12 [Compound (42), N-(2-diethylaminoethyl)-N-methyl-5-isoquinolinesulfonamide]

From patent publication US4798897A, “Isoquinoline derivatives” (Asahi Kasei Kogyo Kabushiki Kaisha, priority 1987, dated 1989)
